Data as given in ChEMBL document CHEMBL1134858, “Identification of a novel 1'-[5-((3,5-dichlorobenzoyl)methylamino)-3-(3,4-dichlorophenyl)-4-(methoxyimino)pentyl]-2-oxo-(1,4'-bipiperidine) as a dual NK(1)/NK(2) antagonist” (Bioorg Med Chem Lett, 2002).
Several values for one entry are separate records, joined by “and”; a condition that tells them apart may be missing. Identical values can stand only once.

What was measured:
Substance-K receptor [1] = molecular target: T1, Substance-K receptor (Cavia porcellus, UniProt Q64077); test: In vitro binding to Tachykinin receptor 2
T1 sequence (Q64077 whole entry): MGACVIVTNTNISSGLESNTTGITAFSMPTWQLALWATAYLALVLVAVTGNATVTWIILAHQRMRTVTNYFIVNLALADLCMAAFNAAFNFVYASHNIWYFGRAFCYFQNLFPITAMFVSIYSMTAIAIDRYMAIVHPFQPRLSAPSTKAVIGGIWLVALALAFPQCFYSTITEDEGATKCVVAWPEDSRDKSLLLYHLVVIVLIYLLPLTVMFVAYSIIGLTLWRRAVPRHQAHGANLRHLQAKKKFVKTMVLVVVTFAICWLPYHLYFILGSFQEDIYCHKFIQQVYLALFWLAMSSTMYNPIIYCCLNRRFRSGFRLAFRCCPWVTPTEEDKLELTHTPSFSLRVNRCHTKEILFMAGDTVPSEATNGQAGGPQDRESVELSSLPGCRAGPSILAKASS

Substance-K receptor [2] = molecular target: T1, Substance-K receptor; test: In vitro functional NK2 activity as inhibition of guinea pig bronchoconstriction; format: tissue-based, Lung; conditions: read-out: pA2 (converted)
Substance-P receptor [3] = molecular target: T2, Substance-P receptor (Cavia porcellus, UniProt P30547); test: In vitro binding to Tachykinin receptor 1
[4] = AUC in dog at 0-24 hr by peroral administration at 3 mpk; format: ADME, organism-based, Canis lupus familiaris; parameters: dose 3 mpk, time < 24 hr, route oral; conditions: plasma, po, 3 mg/kg
Cavia porcellus [5] = test: In vivo NK2 activity is characterized by the compounds ability to inhibit bronchoconstriction produced by a NKA challenge; format: functional; conditions: Lung
Substance-P receptor [6] = molecular target: T2, Substance-P receptor; test: In vitro functional NK1 activity as inhibition of guinea pig bronchoconstriction; format: tissue-based, Lung; conditions: read-out: pA2 (converted)
Cavia porcellus [7] = test: In vivo NK1 activity in the guinea pig is characterized by the compounds ability to inhibit the increase in airway microvascular leakage (AML) produced by a SP challenge; format: functional
[8] = Bioavailability in dog; format: ADME, organism-based, Canis lupus familiaris; conditions: in vivo
Substance-K receptor [9] = molecular target: T1, Substance-K receptor; test: […] is characterized by the compound ability to inhibit guinea pig bronchoconstriction; format: functional, Lung; conditions: read-out: pA2 (converted)
Cavia porcellus [10] = test: In vivo NK1 activity in the guinea pig is characterized by the compounds ability to inhibit the increase in airway microvascular leakage (AML) produced by a SP challenge at 10 mg/kg; format: functional
Cavia porcellus [11] = test: In vivo NK2 activity is characterized by the compounds ability to inhibit bronchoconstriction produced by a NKA challenge at 10 mg/kg; format: functional; conditions: Lung
Cavia porcellus [12] = test: In vivo NK2 activity is characterized by the compounds ability to inhibit bronchoconstriction produced by a NKA challenge at 10 mpk; format: functional; conditions: Lung

T2 sequence (P30547 whole entry): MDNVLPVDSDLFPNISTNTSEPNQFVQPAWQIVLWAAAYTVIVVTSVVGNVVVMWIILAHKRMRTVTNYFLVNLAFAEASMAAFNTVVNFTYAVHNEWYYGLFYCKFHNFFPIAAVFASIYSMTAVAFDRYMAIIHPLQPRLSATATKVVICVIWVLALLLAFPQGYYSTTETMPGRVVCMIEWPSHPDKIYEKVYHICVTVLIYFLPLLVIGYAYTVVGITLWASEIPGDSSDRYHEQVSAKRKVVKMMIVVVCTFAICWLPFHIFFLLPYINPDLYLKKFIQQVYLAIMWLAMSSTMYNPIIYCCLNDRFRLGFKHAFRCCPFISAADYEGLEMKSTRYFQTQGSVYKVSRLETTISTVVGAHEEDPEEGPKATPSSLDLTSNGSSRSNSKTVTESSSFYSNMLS

| Ki (Substance-K receptor [1]) | Kb (Substance-K receptor [2]) | Ki (Substance-P receptor [3]) | AUC at 24 h [4] | Kb (Substance-P receptor [6]) | bioavailability [8] | Kb (Substance-K receptor [9]) | Compound | ED50 (Cavia porcellus [5]) | ED50 (Cavia porcellus [7]) | inhibition in vivo at 10 mg/kg (Cavia porcellus [10]) | inhibition in vivo at 10 mg/kg (Cavia porcellus [11]) | inhibition in vivo at 10 mg/kg (Cavia porcellus [12]) |
| --- | --- | --- | --- | --- | --- | --- | --- | --- | --- | --- | --- | --- |
| 2 nM | 50.1 nM | 5 nM | – | – | – | – | CO/N=C(\CN(C)C(=O)c1cc(Cl)cc(Cl)c1)C(CCN1CCC(N2CCCCC2=O)CC1)c1ccc(Cl)c(Cl)c1 (stereo not given) | – | – | – | – | – |
| 0.2 nM | 39.8 nM | 0.8 nM | 3460 ng·h/mL | 12.6 nM | – | – | CO/N=C(\CN(C)C(=O)c1cc(Cl)cc(Cl)c1)[C@H](CCN1CCC(N2CCCC(CC(=O)N(C)C)C2=O)CC1)c1ccc(Cl)c(Cl)c1 (stereo not given in full) | 3 mg/kg | 3 mg/kg | – | – | – |
| 0.3 nM | 10 nM | 0.8 nM | 9490 ng·h/mL | 10 nM | 37% | – | CO/N=C(\CN(C)C(=O)c1cc(Cl)cc(Cl)c1)[C@H](CCN1CCC(N2CCCC(CC(N)=O)C2=O)CC1)c1ccc(Cl)c(Cl)c1 (stereo not given in full) | 4 mg/kg | 1 mg/kg | – | – | – |
| 0.6 nM | – | 1.1 nM | – | – | – | 501 nM | CO/N=C(\CN(C)C(=O)c1cc(Cl)cc(Cl)c1)[C@@H](CCN1CCC(N2CCCC(CC(=O)N3CC(O)C3)C2=O)CC1)c1ccc(Cl)c(Cl)c1 (stereo not given in full) | – | – | – | – | – |
| 0.4 nM | 12.6 nM | 0.7 nM | – | 15.8 nM | – | – | CO/N=C(\CN(C)C(=O)c1cc(Cl)cc(Cl)c1)[C@H](CCN1CCC(N2CCCC(CC(=O)N3CCOCC3)C2=O)CC1)c1ccc(Cl)c(Cl)c1 (stereo not given in full) | – | – | 47% | 97% | – |
| 0.3 nM | 50.1 nM | 0.4 nM | – | 20 nM | – | – | CO/N=C(\CN(C)C(=O)c1cc(Cl)cc(Cl)c1)[C@@H](CCN1CCC(N2CCCC(CC(N)=O)C2=O)CC1)c1ccc(Cl)c(Cl)c1 (stereo not given in full) | – | – | – | – | – |
| 1 nM | 63.1 nM | 1 nM | – | – | – | – | CO/N=C(\CN(C)C(=O)c1cc(Cl)cc(Cl)c1)C(CCN1CCC(N2CCCC(CC(=O)N(C)C)C2=O)CC1)c1ccc(Cl)c(Cl)c1 (stereo not given) | – | – | – | – | – |
| 0.8 nM and 1 nM | 20 nM | 1.2 nM and 1 nM | 1220 ng·h/mL | 10 nM | 5% | – | CO/N=C(\CN(C)C(=O)c1cc(Cl)cc(Cl)c1)[C@H](CCN1CCC(N2CCCCC2=O)CC1)c1ccc(Cl)c(Cl)c1 | 3 mg/kg | 1 mg/kg | – | – | – |
| 0.8 nM | 126 nM | 0.8 nM | – | 6.31 nM | – | – | CO/N=C(\CN(C)C(=O)c1cc(Cl)cc(Cl)c1)[C@@H](CCN1CCC(N2CCCC(CC(=O)N3CCOCC3)C2=O)CC1)c1ccc(Cl)c(Cl)c1 (stereo not given in full) | – | – | – | – | – |
| 1 nM | 50.1 nM | 1 nM | – | – | – | – | CO/N=C(\CN(C)C(=O)c1cc(Cl)cc(Cl)c1)C(CCN1CCC(N2CCCC(CC(=O)N3CCOCC3)C2=O)CC1)c1ccc(Cl)c(Cl)c1 (stereo not given) | – | – | – | – | – |
| 3 nM | 100 nM | 2 nM | – | – | – | – | CO/N=C(\CN(C)C(=O)c1cc(Cl)cc(Cl)c1)C(CCN1CCC(N2CCCC(CC(N)=O)C2=O)CC1)c1ccc(Cl)c(Cl)c1 (stereo not given) | – | – | – | – | – |
| 0.4 nM | 15.8 nM | 1.3 nM | 13600 ng·h/mL | 12.6 nM | 66% | – | CNC(=O)CC1CCCN(C2CCN(CC[C@@H](/C(CN(C)C(=O)c3cc(Cl)cc(Cl)c3)=N/OC)c3ccc(Cl)c(Cl)c3)CC2)C1=O (stereo not given in full) | 3 mg/kg | 1 mg/kg | – | – | – |
| 2 nM | 50.1 nM | 2 nM | – | – | – | – | CNC(=O)CC1CCCN(C2CCN(CCC(/C(CN(C)C(=O)c3cc(Cl)cc(Cl)c3)=N/OC)c3ccc(Cl)c(Cl)c3)CC2)C1=O (stereo not given) | – | – | – | – | – |
| 0.3 nM | 39.8 nM | 0.8 nM | – | 10 nM | – | – | CO/N=C(\CN(C)C(=O)c1cc(Cl)cc(Cl)c1)[C@@H](CCN1CCC(N2CCCC(CC(=O)N(C)C)C2=O)CC1)c1ccc(Cl)c(Cl)c1 (stereo not given in full) | – | – | – | – | – |
| 0.9 nM | 39.8 nM | 1.5 nM | – | 10 nM | – | – | CNC(=O)CC1CCCN(C2CCN(CC[C@H](/C(CN(C)C(=O)c3cc(Cl)cc(Cl)c3)=N/OC)c3ccc(Cl)c(Cl)c3)CC2)C1=O (stereo not given in full) | – | – | – | – | – |
| 2 nM | 25.1 nM | 3 nM | – | – | – | – | CO/N=C(\CN(C)C(=O)c1cc(Cl)cc(Cl)c1)C(CCN1CCC(N2CCCC(CC(=O)N3CC(O)C3)C2=O)CC1)c1ccc(Cl)c(Cl)c1 (stereo not given) | – | – | – | – | – |
| 0.3 nM | 50.1 nM | 0.6 nM | – | 10 nM | – | – | CO/N=C(\CN(C)C(=O)c1cc(Cl)cc(Cl)c1)[C@H](CCN1CCC(N2CCCC(CC(=O)N3CC(O)C3)C2=O)CC1)c1ccc(Cl)c(Cl)c1 (stereo not given in full) | – | – | 45% | – | 64% |
